Assay results published in the supplement of paper PMC11208160.

experiment: recombinant barcode read abundance after kanamycin selection (control-corrected) (log10(CPM+1)); higher = more efficient recombination; sequences stand for … in AGTGCAGAGAAAATCGGCCAGTTTTCTCTGCCTGCAGTCCGCATGCCGT…AGATTTATGCAGCGGACTGCCTTTCTCCCAAAGTGATAAACCGGACAGTATCATGGACCGGTTTTCCCGGTAATCCGTATTTGCAAGGTTGGTTTCACT; site = the 11-nt target
How it was run: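 Reported as log10(CPM+1), each value stands for recombination efficiency. That efficiency is the averaged, control-corrected counts per million of barcodes found at recombinant junctions. Cells from a pooled E. coli library pairing targets with IS621 bridge RNA target-binding loops were plated twice on chloramphenicol/ampicillin LB agar (control) and twice on chloramphenicol/ampicillin/kanamycin with 0.1 mM IPTG.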
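Further: IS621 recombinase and bridge RNA in Escherichia coli cells.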

Sequence | recombinant barcode read abundance (log10)
TCGATCCCTTGGGTTCTAACCTGTTGCGT (site CTTTGAACTTA) | 0.315
TCGATCCCTTGGGTTCTAACCTGTTGCGT (site TCGATCCCTAC) | 1.95
TCGCACACTTGGGTTCTAACCTGTTGCTG (site TAGCACACTCG) | 0.0637
TCGCACACTTGGGTTCTAACCTGTTGCTG (site TCGCACACTCA) | 0.548
TCGCGGACTTGGGTTCTAACCTGTTGCCT (site TCACGGACTAG) | 0.464
TCGCGGACTTGGGTTCTAACCTGTTGCCT (site TCCCGGACTAG) | 0.243
TCGCGGACTTGGGTTCTAACCTGTTGCCT (site TCGCGGACTAG) | 0.168
TCGCGGACTTGGGTTCTAACCTGTTGCCT (site TCTCGGACTAG) | 0.0887
TCGGAGTCTTGGGTTCTAACCTGTTGCAT (site TCGGAGTCTAA) | 0.5
TCGGAGTCTTGGGTTCTAACCTGTTGCAT (site TCGGAGTCTAC) | 1.03
TCGGAGTCTTGGGTTCTAACCTGTTGCAT (site TCGGAGTCTAG) | 1.4
TCGGAGTCTTGGGTTCTAACCTGTTGCAT (site TCGGAGTCTAT) | 2.29
TCGGAGTCTTGGGTTCTAACCTGTTGCGC (site CTATGACCTCA) | 0.0526
TCGGAGTCTTGGGTTCTAACCTGTTGCGC (site TCGGAGTCTGC) | 1.37
TCGGAGTCTTGGGTTCTAACCTGTTGCTG (site TCGGAGTCTCA) | 0.963
TCGGAGTCTTGGGTTCTAACCTGTTGCTG (site TCGGAGTCTCG) | 0.446
TCGGATACTTGGGTTCTAACCTGTTGCTT (site TCGGATACTAA) | 0.659
TCGGATACTTGGGTTCTAACCTGTTGCTT (site TCGGATACTAC) | 0.249
TCGGATACTTGGGTTCTAACCTGTTGCTT (site TCGGATACTAG) | 0.759
TCGGATACTTGGGTTCTAACCTGTTGCTT (site TCGGATACTAT) | 0.323
TCGTCACCTTGGGTTCTAACCTGTTGCAT (site CTAGTGGCTCG) | 0
TCGTCACCTTGGGTTCTAACCTGTTGCAT (site TCGTCACCTAT) | 0.0694

Sequence | recombinant barcode read abundance (log10)
TCGTCATCTTGGGTTCTAACCTGTTGCCT (site TCGTCATCTAG) | 0.21
TCGTCATCTTGGGTTCTAACCTGTTGCCT (site TCGTCCTCTAG) | 0.276
TCGTGCCCTTGGGTTCTAACCTGTTGCTG (site TCGTGCCCTAA) | 0.0676
TCGTGCCCTTGGGTTCTAACCTGTTGCTG (site TCGTGCCCTCA) | 0.156
TCGTTCCCTTGGGTTCTAACCTGTTGCTT (site TCGTTCCCTAA) | 0.105
TCGTTCCCTTGGGTTCTAACCTGTTGCTT (site TCGTTGCCTAG) | 0.0502
TCGTTGCCTTGGGTTCTAACCTGTTGCCT (site TCGTTCCCTAA) | 0.695
TCGTTGCCTTGGGTTCTAACCTGTTGCCT (site TCGTTGCCTAG) | 0.533
TCTAACCCTTGGGTTCTAACCTGTTGCGG (site TCAAACCCTCC) | 0.332
TCTAACCCTTGGGTTCTAACCTGTTGCGG (site TCCAACCCTCC) | 0.0105
TCTAACCCTTGGGTTCTAACCTGTTGCGG (site TCGAACCCTCC) | 0.091
TCTAACCCTTGGGTTCTAACCTGTTGCGG (site TCTAACCCTCC) | 1.09
TCTAAGTCTTGGGTTCTAACCTGTTGCCG (site TCTAAGTCTAG) | 0.0709
TCTAAGTCTTGGGTTCTAACCTGTTGCCG (site TCTAAGTCTCG) | 0.137
TCTAAGTCTTGGGTTCTAACCTGTTGCCG (site TCTAAGTCTGG) | 0.0885
TCTAAGTCTTGGGTTCTAACCTGTTGCCG (site TCTAAGTCTTG) | 0.483
TCTACTTCTTGGGTTCTAACCTGTTGCCT (site TCTACATCTAG) | 0.0183
TCTACTTCTTGGGTTCTAACCTGTTGCCT (site TCTACCTCTAG) | 0.123
TCTACTTCTTGGGTTCTAACCTGTTGCCT (site TCTACGTCTAG) | 0.0937
TCTACTTCTTGGGTTCTAACCTGTTGCCT (site TCTACTTCTAG) | 0.136
TCTAGACCTTGGGTTCTAACCTGTTGCCT (site TCTAGAACTAG) | 0
TCTAGACCTTGGGTTCTAACCTGTTGCCT (site TCTAGACCTAG) | 0.0778

Sequence | recombinant barcode read abundance (log10)
TCTAGACCTTGGGTTCTAACCTGTTGCCT (site TCTAGAGCTAG) | 0.139
TCTAGACCTTGGGTTCTAACCTGTTGCCT (site TCTAGATCTAG) | 0.03
TCTAGAGCTTGGGTTCTAACCTGTTGCGG (site CCTCGAGCTCC) | 0.176
TCTAGAGCTTGGGTTCTAACCTGTTGCGG (site TCTAGAGCTCC) | 1.61
TCTAGTCCTTGGGTTCTAACCTGTTGCCT (site TCTAGACCTTG) | 0.418
TCTAGTCCTTGGGTTCTAACCTGTTGCCT (site TCTAGTCCTAG) | 0.036
TCTCAACCTTGGGTTCTAACCTGTTGCCT (site TCTAAACCTAG) | 0.0445
TCTCAACCTTGGGTTCTAACCTGTTGCCT (site TCTCAACCTAG) | 1.33
TCTCAGGCTTGGGTTCTAACCTGTTGCCG (site TCACAGGCTCG) | 0.203
TCTCAGGCTTGGGTTCTAACCTGTTGCCG (site TCTCAGGCTCG) | 0.0148
TCTCAGTCTTGGGTTCTAACCTGTTGCGG (site TCCCAGTCTCA) | 0.0631
TCTCAGTCTTGGGTTCTAACCTGTTGCGG (site TCTCAGTCTCC) | 1.14
TCTCCAGCTTGGGTTCTAACCTGTTGCCT (site TCGCAAGCTAG) | 0.0305
TCTCCAGCTTGGGTTCTAACCTGTTGCCT (site TCTCCAGCTAG) | 1.13
TCTCGAGCTTGGGTTCTAACCTGTTGCGA (site CTGGCGCCTAT) | 0.839
TCTCGAGCTTGGGTTCTAACCTGTTGCGA (site TCTCGAGCTTC) | 0.78
TCTCGGACTTGGGTTCTAACCTGTTGCCT (site TCACGGACTAG) | 0.147
TCTCGGACTTGGGTTCTAACCTGTTGCCT (site TCCCGGACTAG) | 0.0144
TCTCGGACTTGGGTTCTAACCTGTTGCCT (site TCGCGGACTAG) | 0.0137
TCTCGGACTTGGGTTCTAACCTGTTGCCT (site TCTCGGACTAG) | 0.249
TCTCTCGCTTGGGTTCTAACCTGTTGCCT (site CAGAATCCTCC) | 0.108
TCTCTCGCTTGGGTTCTAACCTGTTGCCT (site TCTCTCGCTAG) | 0.47

Sequence | recombinant barcode read abundance (log10)
TCTGATCCTTGGGTTCTAACCTGTTGCCT (site TCTCACCCTAG) | 0.0615
TCTGATCCTTGGGTTCTAACCTGTTGCCT (site TCTGATCCTAG) | 0.7
TCTGGGCCTTGGGTTCTAACCTGTTGCTA (site TCTGGGCCTAA) | 0.42
TCTGGGCCTTGGGTTCTAACCTGTTGCTA (site TCTGGGCCTTA) | 0.364
TCTTAGACTTGGGTTCTAACCTGTTGCGA (site CAAACCTCTGT) | 0.0411
TCTTAGACTTGGGTTCTAACCTGTTGCGA (site TCTTAGACTTC) | 0.638
TCTTAGACTTGGGTTCTAACCTGTTGCGG (site ACTTAGACTCC) | 0.172
TCTTAGACTTGGGTTCTAACCTGTTGCGG (site TCTTAGACTCC) | 1.47
TCTTATTCTTGGGTTCTAACCTGTTGCGT (site TCTAATTCTAC) | 0.0715
TCTTATTCTTGGGTTCTAACCTGTTGCGT (site TCTCATTCTAC) | 0.0847
TCTTATTCTTGGGTTCTAACCTGTTGCGT (site TCTGATTCTAC) | 0.0368
TCTTATTCTTGGGTTCTAACCTGTTGCGT (site TCTTATTCTAC) | 0.258
TCTTGGACTTGGGTTCTAACCTGTTGCAC (site AGGGACCCTAG) | 0.0242
TCTTGGACTTGGGTTCTAACCTGTTGCAC (site TCTTGGACTGT) | 0.104
TCTTGGACTTGGGTTCTAACCTGTTGCTC (site TCTTGGACTAA) | 0.0489
TCTTGGACTTGGGTTCTAACCTGTTGCTC (site TCTTGGACTCA) | 0.153
TCTTGGACTTGGGTTCTAACCTGTTGCTC (site TCTTGGACTGA) | 0.165
TCTTGGACTTGGGTTCTAACCTGTTGCTC (site TCTTGGACTTA) | 0.0183
TCTTGTCCTTGGGTTCTAACCTGTTGCGG (site TCTTGTCCTAC) | 0.0164
TCTTGTCCTTGGGTTCTAACCTGTTGCGG (site TCTTGTCCTCC) | 0.526
